Experimental data taken from ChEMBL document CHEMBL1201862, “PubChem BioAssay data set” (2004).
One block for each compound: values may come before it. Active and inactive are the calls of the source.

Assays:
Estrogen receptor = target: T1, Estrogen receptor (Homo sapiens, UniProt P03372); experiment: blockers of SRC-3 recruitment to ERα – biochemical, ELISA, streptavidin-HRP readout, orthogonal assay, confirmation (AID 1079)
T1 sequence (P03372 whole entry): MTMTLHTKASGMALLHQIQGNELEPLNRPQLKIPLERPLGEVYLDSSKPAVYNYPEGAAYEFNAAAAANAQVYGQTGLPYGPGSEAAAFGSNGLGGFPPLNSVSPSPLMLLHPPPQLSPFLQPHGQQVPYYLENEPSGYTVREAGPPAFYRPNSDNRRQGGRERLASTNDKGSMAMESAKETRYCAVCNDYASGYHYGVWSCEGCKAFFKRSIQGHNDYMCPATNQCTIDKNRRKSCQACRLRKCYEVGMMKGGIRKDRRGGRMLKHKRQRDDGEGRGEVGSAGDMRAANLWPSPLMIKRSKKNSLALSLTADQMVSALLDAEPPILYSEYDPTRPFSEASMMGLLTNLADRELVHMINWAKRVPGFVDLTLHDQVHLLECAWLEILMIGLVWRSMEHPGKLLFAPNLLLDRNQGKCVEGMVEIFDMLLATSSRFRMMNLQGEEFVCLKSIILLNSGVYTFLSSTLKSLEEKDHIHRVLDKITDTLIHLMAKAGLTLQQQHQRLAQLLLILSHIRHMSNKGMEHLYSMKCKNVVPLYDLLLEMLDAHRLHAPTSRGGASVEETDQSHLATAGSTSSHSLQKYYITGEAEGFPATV

Oxytocin receptor = Oxytocin receptor (Homo sapiens, UniProt P30559); experiment: Fluorescence-based cell-based high throughput dose response assay for agonists of the Oxytocin Receptor (OXTR). [Related pubchem assays: 2435 (Primary screen (OXTR agonists in singlicate)), 434991 (Counterscreen (V1R agonists in triplicate)), 2482 (Summary (OXTR agonists)), 434963 (Confirmation screen (OXTR agonists in triplicate))]; format: functional
Sequence of Oxytocin receptor (P30559 whole entry): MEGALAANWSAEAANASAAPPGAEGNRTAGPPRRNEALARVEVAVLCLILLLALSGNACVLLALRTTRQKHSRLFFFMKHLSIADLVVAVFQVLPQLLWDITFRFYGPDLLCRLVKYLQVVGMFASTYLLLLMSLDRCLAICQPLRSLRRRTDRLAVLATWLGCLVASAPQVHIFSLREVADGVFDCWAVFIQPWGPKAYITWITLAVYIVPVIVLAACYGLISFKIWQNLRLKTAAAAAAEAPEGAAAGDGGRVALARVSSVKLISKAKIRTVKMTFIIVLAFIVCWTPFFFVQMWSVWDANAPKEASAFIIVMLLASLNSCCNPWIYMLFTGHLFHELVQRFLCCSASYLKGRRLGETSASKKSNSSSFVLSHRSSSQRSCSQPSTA

Vasopressin V1a receptor = Vasopressin V1a receptor (Homo sapiens, UniProt P37288); experiment: Counterscreen for Oxytocin Receptor (OXTR) agonists: Fluorescence-based cell-based high throughput dose response assay to identify agonists of the vasopressin 1 receptor (V1R). [Related pubchem assays: 2435 (Primary screen (OXTR agonists in singlicate)), 434991 (Counterscreen (V1R agonists in triplicate)), 2482 (Summary (OXTR agonists)) …; format: functional
Sequence of Vasopressin V1a receptor (P37288 whole entry): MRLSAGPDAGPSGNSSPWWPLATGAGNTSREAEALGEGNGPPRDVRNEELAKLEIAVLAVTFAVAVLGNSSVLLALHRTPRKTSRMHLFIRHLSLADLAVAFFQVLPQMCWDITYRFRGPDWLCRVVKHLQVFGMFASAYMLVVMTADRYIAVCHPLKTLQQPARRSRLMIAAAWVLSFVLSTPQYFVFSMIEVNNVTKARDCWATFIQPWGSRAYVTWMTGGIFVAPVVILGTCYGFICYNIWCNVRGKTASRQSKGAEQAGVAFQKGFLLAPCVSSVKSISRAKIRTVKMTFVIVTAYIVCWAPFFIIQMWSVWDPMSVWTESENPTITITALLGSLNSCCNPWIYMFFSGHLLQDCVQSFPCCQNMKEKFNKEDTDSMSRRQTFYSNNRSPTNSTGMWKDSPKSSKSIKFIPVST

Protein Wnt-3a = Protein Wnt-3a (Mus musculus, UniProt P27467); experiment: antagonism of Wnt3a pathway luciferase reporter – Wnt-LIGHT cells, luminescence, selectivity assay for Gli-SUFU antagonist project, dose response (AID 651570); format: functional; conditions: read-out: IC50_Mean;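 further: Wnt-LIGHT reporter cells stimulated with conditioned medium from Wnt3a-producing cells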
Sequence of Protein Wnt-3a (P27467 whole entry): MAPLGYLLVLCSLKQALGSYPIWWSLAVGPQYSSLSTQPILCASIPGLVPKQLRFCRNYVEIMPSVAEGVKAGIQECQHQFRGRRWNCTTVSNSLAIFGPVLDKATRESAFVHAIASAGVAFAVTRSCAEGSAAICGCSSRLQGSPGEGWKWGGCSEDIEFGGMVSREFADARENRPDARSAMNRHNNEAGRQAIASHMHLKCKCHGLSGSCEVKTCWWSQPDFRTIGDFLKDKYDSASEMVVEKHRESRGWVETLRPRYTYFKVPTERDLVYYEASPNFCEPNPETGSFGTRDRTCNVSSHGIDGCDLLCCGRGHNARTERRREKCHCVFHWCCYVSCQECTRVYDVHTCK

[1] = non-specific 3'UTR reporter inhibition in Clone20-Shn3RL – cell-based, Renilla luciferase, cherry-picked, counter-screen for Shn3 inhibitor project, dose response (AID 624133); format: functional
[2] = reduction of Shn3 3'UTR-driven luciferase in osteoblasts – cell-based, Clone20 osteoblasts, firefly luciferase, cherry-picked, dose response (AID 624132); format: functional;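 further: firefly luciferase luminescence from reporter carrying the Shn3 3'UTR in osteoblasts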
[3] = loss of viability in HepG2 cells – cell-based, CellTiter-Glo, cherry-picked, cytotoxicity control for Shn3 inhibitor project, dose response (AID 624134); format: functional
[4] = target: Heat shock 70 kDa protein 1A (Homo sapiens, UniProt P0DMV8); experiment: inhibition of Hsp70 binding activity – biochemical, fluorescence polarization, SAR follow-up (AID 1072)
Sequence of Heat shock 70 kDa protein 1A (P0DMV8 whole entry): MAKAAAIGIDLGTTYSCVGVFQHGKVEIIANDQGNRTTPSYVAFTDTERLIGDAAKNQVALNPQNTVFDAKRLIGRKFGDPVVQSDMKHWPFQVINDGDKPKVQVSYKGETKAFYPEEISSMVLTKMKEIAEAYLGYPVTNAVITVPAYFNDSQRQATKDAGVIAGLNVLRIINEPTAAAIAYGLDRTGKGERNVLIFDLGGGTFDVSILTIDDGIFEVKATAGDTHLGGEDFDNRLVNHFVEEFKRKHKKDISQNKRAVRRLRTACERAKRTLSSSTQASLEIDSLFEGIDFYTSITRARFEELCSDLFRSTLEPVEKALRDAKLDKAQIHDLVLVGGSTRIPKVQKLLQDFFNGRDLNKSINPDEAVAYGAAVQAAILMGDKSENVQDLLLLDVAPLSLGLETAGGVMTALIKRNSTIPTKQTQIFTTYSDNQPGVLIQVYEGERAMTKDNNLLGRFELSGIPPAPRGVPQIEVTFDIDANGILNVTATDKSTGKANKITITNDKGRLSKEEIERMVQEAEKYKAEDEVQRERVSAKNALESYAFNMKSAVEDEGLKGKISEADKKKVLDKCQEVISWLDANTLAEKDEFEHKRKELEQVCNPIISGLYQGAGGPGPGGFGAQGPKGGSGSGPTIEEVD

[5] = target: T2, Tyrosine-protein phosphatase non-receptor type 7 (Homo sapiens, UniProt P35236); format: functional
T2 sequence (P35236 whole entry): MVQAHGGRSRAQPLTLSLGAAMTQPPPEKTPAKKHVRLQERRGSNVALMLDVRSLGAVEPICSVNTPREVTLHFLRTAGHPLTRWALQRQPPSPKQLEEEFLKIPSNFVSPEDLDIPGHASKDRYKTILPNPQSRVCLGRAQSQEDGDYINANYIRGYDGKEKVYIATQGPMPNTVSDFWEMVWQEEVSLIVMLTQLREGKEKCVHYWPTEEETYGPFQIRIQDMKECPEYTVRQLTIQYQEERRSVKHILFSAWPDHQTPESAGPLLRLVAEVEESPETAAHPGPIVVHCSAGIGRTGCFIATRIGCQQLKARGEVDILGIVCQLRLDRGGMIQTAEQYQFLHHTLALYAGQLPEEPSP

[6] = target: T3, Dual specificity protein phosphatase 6 (Rattus norvegicus, UniProt Q64346);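 further: in vitro confirmatory secondary MKP-3 assay designed to detect irreversible or slow-binding inhibitors; recombinant His-tagged rat MKP-3 acting on the substrate OMFP; inhibitor potency from reduced phosphatase rate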
T3 sequence (Q64346 whole entry): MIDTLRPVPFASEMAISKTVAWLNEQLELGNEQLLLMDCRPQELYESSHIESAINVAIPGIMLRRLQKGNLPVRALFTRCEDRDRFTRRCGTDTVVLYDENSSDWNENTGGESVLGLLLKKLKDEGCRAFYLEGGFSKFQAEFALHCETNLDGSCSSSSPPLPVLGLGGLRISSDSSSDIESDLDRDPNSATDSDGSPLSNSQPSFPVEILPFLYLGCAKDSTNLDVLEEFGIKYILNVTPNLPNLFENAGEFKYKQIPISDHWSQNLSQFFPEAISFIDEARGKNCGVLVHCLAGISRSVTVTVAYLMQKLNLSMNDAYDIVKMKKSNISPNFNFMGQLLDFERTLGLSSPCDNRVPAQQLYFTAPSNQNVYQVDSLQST

[7] = target: Heat shock cognate 71 kDa protein (Homo sapiens, UniProt P11142); experiment: In Vitro Hsc70 Dose Response Fluorescence Polarization Assay. [Related pubchem assays: 1072 ]
Sequence of Heat shock cognate 71 kDa protein (P11142 whole entry): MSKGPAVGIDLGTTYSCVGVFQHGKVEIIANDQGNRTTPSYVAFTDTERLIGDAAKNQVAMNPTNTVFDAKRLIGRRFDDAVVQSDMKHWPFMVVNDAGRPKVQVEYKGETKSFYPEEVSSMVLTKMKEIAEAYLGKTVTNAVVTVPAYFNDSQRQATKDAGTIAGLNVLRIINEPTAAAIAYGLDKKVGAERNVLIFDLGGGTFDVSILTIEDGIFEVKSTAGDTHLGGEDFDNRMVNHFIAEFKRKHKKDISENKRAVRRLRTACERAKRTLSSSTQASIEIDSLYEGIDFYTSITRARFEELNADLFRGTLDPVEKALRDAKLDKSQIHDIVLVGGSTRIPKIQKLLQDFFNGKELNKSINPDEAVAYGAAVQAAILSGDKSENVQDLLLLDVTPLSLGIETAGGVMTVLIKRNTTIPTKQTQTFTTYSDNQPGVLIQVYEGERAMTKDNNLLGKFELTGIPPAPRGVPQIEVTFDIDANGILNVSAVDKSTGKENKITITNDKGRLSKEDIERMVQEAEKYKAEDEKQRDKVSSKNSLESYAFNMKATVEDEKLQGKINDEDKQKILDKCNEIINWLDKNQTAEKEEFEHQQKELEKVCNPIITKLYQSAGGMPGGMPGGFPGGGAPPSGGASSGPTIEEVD

[8] = target: Glyceraldehyde-3-phosphate dehydrogenase (Homo sapiens, UniProt P04406)
Sequence of Glyceraldehyde-3-phosphate dehydrogenase (P04406 whole entry): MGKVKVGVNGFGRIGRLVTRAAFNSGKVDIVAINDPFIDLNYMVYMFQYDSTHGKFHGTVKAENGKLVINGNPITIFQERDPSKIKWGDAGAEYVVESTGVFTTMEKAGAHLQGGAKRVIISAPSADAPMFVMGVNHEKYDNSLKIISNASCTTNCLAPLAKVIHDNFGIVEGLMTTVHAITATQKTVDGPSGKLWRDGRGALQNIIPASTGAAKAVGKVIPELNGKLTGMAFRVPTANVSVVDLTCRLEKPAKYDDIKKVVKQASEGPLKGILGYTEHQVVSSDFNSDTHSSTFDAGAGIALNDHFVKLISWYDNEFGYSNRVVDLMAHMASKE

[9] = target: Heat shock protein HSP 90-alpha (Homo sapiens, UniProt P07900); format: functional, organism-based
[10] = glucagon-like peptide-1 release potency in STC-1, concentration-response, half-maximal inhibitory concentration in the STC-1 line (AID 1117345); format: functional, cell-based
[11] = HCT116 cell viability decrease, GSK3B pretreatment – CellTiter-Glo, IC50, dose response (AID 1117339); format: functional; conditions: HCT-116
[12] = Potency on glucagon-like peptide 1 release, dose-response in NCI-H716 cell line, half maximal inhibitory concentration (AID 1117344); format: functional, cell-based
[13] = CellTiter-Glo luminescence survival assay, SW480 colon tumor line, concentration-response curve, half-maximal inhibitory concentration (AID 1117338); format: functional
Cysteine protease ATG4B = target: T4, Cysteine protease ATG4B (Homo sapiens, UniProt Q9Y4P1); format: functional;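 further: Fluorescence-based dose-response confirmation assay measuring inhibition of ATG4B activity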
T4 sequence (Q9Y4P1 whole entry): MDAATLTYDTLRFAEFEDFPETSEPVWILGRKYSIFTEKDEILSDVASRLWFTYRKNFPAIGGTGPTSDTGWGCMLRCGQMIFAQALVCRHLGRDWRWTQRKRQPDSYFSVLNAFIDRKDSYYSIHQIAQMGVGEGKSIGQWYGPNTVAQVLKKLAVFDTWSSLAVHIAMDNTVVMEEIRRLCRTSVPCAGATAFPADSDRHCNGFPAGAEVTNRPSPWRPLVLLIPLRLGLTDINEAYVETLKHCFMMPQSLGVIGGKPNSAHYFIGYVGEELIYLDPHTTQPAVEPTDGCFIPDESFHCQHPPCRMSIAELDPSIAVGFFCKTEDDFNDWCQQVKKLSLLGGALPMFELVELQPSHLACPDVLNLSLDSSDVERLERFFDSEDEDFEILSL

[14] = cytotoxicity toward Colo320 cells – cell-based, CellTiter-Glo luminescence, IC50, dose response (AID 1117334); format: functional; conditions: COLO 320
[15] = RKO cell viability reduction, dose response, CellTiter-Glo luminescence (AID 1117322); format: functional
Phospholipase A2 = Phospholipase A2 (Homo sapiens, UniProt P04054); format: functional;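 further: confirmatory dose-response counterscreen on phospholipase A2, testing hits that came from an ultra-high-throughput screen for ATG4B inhibitors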
Sequence of Phospholipase A2 (P04054 whole entry): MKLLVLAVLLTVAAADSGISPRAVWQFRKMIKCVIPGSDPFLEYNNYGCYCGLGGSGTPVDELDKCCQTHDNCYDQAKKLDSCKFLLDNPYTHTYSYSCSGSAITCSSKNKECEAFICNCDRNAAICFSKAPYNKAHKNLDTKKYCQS

[16] = cytotoxicity toward HCT116 cells – cell-based, CellTiter-Glo luminescence, IC50, dose response (AID 1117332); format: functional; conditions: HCT-116
[17] = SNU-C1 cell viability reduction, dose response, CellTiter-Glo luminescence (AID 1117323); format: functional, cell-based
[18] = target: Voltage-gated inwardly rectifying potassium channel KCNH2 (Homo sapiens, UniProt Q12809); conditions: Potency;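 further: confirmatory quantitative high-throughput screen measuring inhibition of hERG channel activity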
Sequence of Voltage-gated inwardly rectifying potassium channel KCNH2 (Q12809 whole entry): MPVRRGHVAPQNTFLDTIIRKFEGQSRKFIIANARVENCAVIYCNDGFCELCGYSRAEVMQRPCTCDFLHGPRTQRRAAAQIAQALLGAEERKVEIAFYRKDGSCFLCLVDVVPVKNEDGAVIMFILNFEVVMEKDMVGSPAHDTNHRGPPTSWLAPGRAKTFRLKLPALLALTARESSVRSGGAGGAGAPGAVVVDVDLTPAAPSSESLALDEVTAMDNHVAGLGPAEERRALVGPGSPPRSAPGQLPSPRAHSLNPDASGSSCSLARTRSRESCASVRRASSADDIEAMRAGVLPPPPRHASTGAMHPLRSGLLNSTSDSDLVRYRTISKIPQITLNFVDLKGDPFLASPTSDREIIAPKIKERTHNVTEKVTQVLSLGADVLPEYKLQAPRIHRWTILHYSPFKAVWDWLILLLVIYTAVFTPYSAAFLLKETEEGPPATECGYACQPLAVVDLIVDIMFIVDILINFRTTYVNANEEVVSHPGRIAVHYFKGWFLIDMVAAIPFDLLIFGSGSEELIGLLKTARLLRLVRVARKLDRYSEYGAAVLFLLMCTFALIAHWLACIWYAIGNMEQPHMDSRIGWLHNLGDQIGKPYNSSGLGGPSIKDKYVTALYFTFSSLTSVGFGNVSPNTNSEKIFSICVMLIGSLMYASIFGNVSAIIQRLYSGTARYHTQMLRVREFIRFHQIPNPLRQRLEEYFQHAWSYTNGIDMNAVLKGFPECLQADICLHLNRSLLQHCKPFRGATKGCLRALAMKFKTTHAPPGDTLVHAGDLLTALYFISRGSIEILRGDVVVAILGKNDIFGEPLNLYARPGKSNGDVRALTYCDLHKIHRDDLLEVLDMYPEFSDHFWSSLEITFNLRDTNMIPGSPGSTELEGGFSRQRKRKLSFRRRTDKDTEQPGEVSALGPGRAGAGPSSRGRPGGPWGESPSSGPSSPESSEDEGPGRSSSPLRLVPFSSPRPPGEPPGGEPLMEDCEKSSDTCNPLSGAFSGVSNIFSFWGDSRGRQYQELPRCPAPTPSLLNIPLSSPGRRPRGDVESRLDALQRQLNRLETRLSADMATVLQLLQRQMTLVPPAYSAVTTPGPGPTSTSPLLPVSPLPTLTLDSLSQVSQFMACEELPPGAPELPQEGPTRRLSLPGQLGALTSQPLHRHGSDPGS

Fatty acid synthase = Fatty acid synthase (Homo sapiens, UniProt P49327); experiment: inhibition of human FAS-TE enzyme activity – biochemical, kinetic fluorescence intensity, dose response (AID 624326); format: functional;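 further: rate of fluorescence rise from hydrolysis of a fluorogenic O-methyl fluorescein ester substrate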
[19] = Reduced DLD-1 viability, concentration-response, CellTiter-Glo luminescence (AID 1117352); format: functional
Cytochrome P450 2D6 = Cytochrome P450 2D6 (Homo sapiens, UniProt P10635); experiment: qHTS Assay for Inhibitors and Substrates of Cytochrome P450 2D6. [Related pubchem assays: 410 ]; format: ADME; conditions: read-out: Potency
Sequence of Cytochrome P450 2D6 (P10635 whole entry): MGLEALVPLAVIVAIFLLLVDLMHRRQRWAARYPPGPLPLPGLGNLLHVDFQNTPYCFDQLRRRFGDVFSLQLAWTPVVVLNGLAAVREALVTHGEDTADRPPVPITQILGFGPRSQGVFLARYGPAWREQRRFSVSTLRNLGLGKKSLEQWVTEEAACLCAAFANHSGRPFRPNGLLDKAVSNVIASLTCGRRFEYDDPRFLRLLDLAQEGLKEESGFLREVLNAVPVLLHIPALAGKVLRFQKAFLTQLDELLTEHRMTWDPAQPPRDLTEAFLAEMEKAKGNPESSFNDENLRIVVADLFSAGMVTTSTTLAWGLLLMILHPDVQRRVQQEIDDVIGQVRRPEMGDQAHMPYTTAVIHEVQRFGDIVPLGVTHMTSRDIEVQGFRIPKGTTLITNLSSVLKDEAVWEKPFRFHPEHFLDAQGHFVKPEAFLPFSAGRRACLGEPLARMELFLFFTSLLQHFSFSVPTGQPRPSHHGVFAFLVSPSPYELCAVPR

IC50 (Estrogen receptor): 0.35 µM (not active)
Structure (SMILES): O=C(CCCCCn1c(=S)[nH]c2ccccc2c1=O)N1CCN(c2cccc(Cl)c2)CC1

Structure (SMILES): COc1ccc(CNc2[nH]cnc3c4ccccc4nc2-3)cc1
EC50 (Oxytocin receptor): 27.4 µM (not active)
EC50 (Vasopressin V1a receptor): > 29.9 µM (not active)
IC50 (Protein Wnt-3a): 12.4 µM (active)
AC50 [1]: 5.89 µM (active)
AC50 [2]: 4.19 µM (active)
AC50 [3]: 28 µM (active)

IC50 [4]: 28 µM (active)
IC50 [5]: 2.8 µM (active)
IC50 [6]: 17 µM (active)
IC50 [7]: 115 µM (active)
IC50 [8]: 93.6 µM (active)
Structure (SMILES): COC(=O)c1ccccc1OC(=O)c1ccc2c(c1)C1C=CCC1C(C(=O)O)N2 (configuration not stated)

Structure (SMILES): Oc1ccc(Cl)cc1Sc1cc(Cl)ccc1O [FENTICLOR]
AC50 [9]: 4.11 µM (active)
IC50 [10]: > 20 µM (inactive)
IC50 [11]: 0.148 µM (active)
IC50 [12]: 21.3 µM (inactive)
IC50 [13]: 0.579 µM (active)
IC50 (Cysteine protease ATG4B): 11 µM (active)
IC50 [14]: 0.075 µM (active)
IC50 [15]: 0.116 µM (active)
IC50 (Phospholipase A2): 15.2 µM (active)
IC50 [16]: 0.183 µM (active)
IC50 [17]: 1.85 µM (active)
AC50 [18]: 31.6 µM (inconclusive)
IC50 (Fatty acid synthase): 3.52 µM (active)
IC50 [19]: 0.301 µM (active)
AC50 (Cytochrome P450 2D6): 3.16 µM (inconclusive)
